Laboratory results from patent publication USRE47689E1, “Compounds for treating spinal muscular atrophy” (PTC Therapeutics, Inc., priority 2011, dated 2019).

Experiments:
Smn protein = Smn protein assay in cultured cells (SMN HTRF); type: cell-based, human; settings: 48 hours; for maximum fold (Fold) increase of Smn protein: SMA patient fibroblast cells, 7-point concentration data, fold increase relative to vehicle control (SMN HTRF); for EC1.5x (concentration giving 1.5-fold Smn protein increase): SMA Type 1 patient fibroblast cells (GM03813), 7-point concentration curve, SMN HTRF, concentration producing 1.5 times Smn protein vs DMSO vehicle control, read-out: EC1.5x for Smn protein expression
In short: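 Smn in SMA fibroblast lysates, measured by anti-SMN HTRF after 48 h compound exposure; EC1.5x from fold change over vehicle.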

[1] = tested on: SMN2 minigene (full length SMN2 minigene mRNA containing SMN2 exon 7); assay: SMN2 minigene mRNA splicing RT-qPCR assay in cultured cells; type: cell-based, human; settings: Homo sapiens, HEK293-H; HEK293H cells stably transfected with SMN2-A minigene; 24 hours; 7-point concentration curve; 1.5-fold relative to vehicle-treated cells; read-out: EC1.5x for production of full length SMN2 mRNA
In short: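 Lysates → one-step RT-qPCR, minigene-specific primers (0.4 μM final) + GAPDH multiplex, 40 cycles. FL/GAPDH vs DMSO; EC1.5x, star-binned.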

| melting point | Structure (SMILES) | maximum fold (Fold) increase of Smn protein (Smn protein) | EC (1.5-fold) [1] | EC1.5x (concentration giving 1.5-fold Smn protein increase) (Smn protein) |
| --- | --- | --- | --- | --- |
| 254 to 258 °C | O=c1oc2cc(N3CCNCC3)ccc2cc1-c1nc2ccccc2[nH]1 [Compound 313, 3-(1H-benzimidazol-2-yl)-7-(piperazin-1-yl)-2H-chromen-2-one] | * (maximum fold increase of ≤1.2) | 0.3 to 1 µM | – |
| 249 to 252 °C | O=c1oc2cc(N3CCNCC3)ccc2cc1-c1cn2cccc(C(F)(F)F)c2n1 [Compound 209, 7-(piperazin-1-yl)-3-[8-(trifluoromethyl)imidazo[1,2-a]pyridin-2-yl]-2H-chromen-2-one] | * (maximum fold increase of ≤1.2) | 0.3 to 1 µM | – |
| 212 to 216 °C | Cc1nccn2cc(-c3cc4ccc(N5CCCNCC5)cc4oc3=O)nc12 [Compound 572, 7-(1,4-diazepan-1-yl)-3-(8-methylimidazo[1,2-a]pyrazin-2-yl)-2H-chromen-2-one] | **** (fold increase between >1.5 and ≤1.65) | 0.1 to 0.3 µM | 300 to 1000 nM |
| 238 to 240 °C | C[C@@H]1CN(c2ccc3cc(-c4nc5c(Cl)cccc5o4)c(=O)oc3c2)C[C@H](C)N1 [Compound 69, 3-(4-chloro-1,3-benzoxazol-2-yl)-7-[(3R,5S)-3,5-dimethylpiperazin-1-yl]-2H-chromen-2-one] | * (maximum fold increase of ≤1.2) | 0.1 to 0.3 µM | – |
| 247 to 250 °C | O=c1oc2cc(N3CCN(CCO)CC3)ccc2cc1-c1cn2cccc(Cl)c2n1 [Compound 121, 3-(8-chloroimidazo[1,2-a]pyridin-2-yl)-7-[4-(2-hydroxyethyl)piperazin-1-yl]-2H-chromen-2-one] | *** (fold increase between >1.35 and ≤1.5) | 0.3 to 1 µM | – |
| 183 to 187 °C | Cc1ccn2nc(-c3cc4ccc(N5CCN[C@H](C)C5)cc4oc3=O)cc2c1 [Compound 306, 7-[(3R)-3-methylpiperazin-1-yl]-3-(5-methylpyrazolo[1,5-a]pyridin-2-yl)-2H-chromen-2-one] | *** (fold increase between >1.35 and ≤1.5) | 0.1 to 0.3 µM | – |
| 208 to 211 °C | O=c1oc2cc(N3CCNCC3)ccc2cc1-c1cc2ccccc2o1 [Compound 602, 3-(1-benzofuran-2-yl)-7-(piperazin-1-yl)-2H-chromen-2-one] | * (maximum fold increase of ≤1.2) | 0.3 to 1 µM | – |
| 235 to 238 °C | O=c1oc2cc(N3CCNCC3)ccc2cc1-c1cc2ncccn2c1 [Cpd 579, 7-(piperazin-1-yl)-3-(pyrrolo[1,2-a]pyrimidin-7-yl)-2H-chromen-2-one] | * (maximum fold increase of ≤1.2) | 0.3 to 1 µM | – |
| 164 to 167 °C | Cc1cccnc1Nc1cc2ccc(N3CCNCC3)cc2oc1=O [Compound 61, 3-[(3-methylpyridin-2-yl)amino]-7-(piperazin-1-yl)-2H-chromen-2-one] | ** (fold increase between >1.2 and ≤1.35) | 3 to 30 µM | – |

The remaining lines, values behind:

| Structure (SMILES) | melting point | maximum fold (Fold) increase of Smn protein (Smn protein) | EC (1.5-fold) [1] | EC1.5x (concentration giving 1.5-fold Smn protein increase) (Smn protein) |
| --- | --- | --- | --- | --- |
| C[C@@H]1CN(c2ccc3cc(-c4cn5cc(Cl)ccc5n4)c(=O)oc3c2)C[C@H](C)N1 [Compound 105, 3-(6-chloroimidazo[1,2-a]pyridin-2-yl)-7-[(3R,5S)-3,5-dimethylpiperazin-1-yl]-2H-chromen-2-one] | 220 to 225 °C | **** (fold increase between >1.5 and ≤1.65) | 1 to 3 µM | 300 to 1000 nM |
| COc1cc(OC)cc(-c2cc3ccc(N4CCN[C@H](C)C4)cc3oc2=O)c1 [Compound 412, 3-(3,5-dimethoxyphenyl)-7-[(3R)-3-methylpiperazin-1-yl]-2H-chromen-2-one] | 148 to 150 °C | * (maximum fold increase of ≤1.2) | 3 to 30 µM | – |
| Cc1cn2cc(-c3cc4ccc(CCCN(C)C)cc4oc3=O)nc2c(C)n1 [Compound 857, 7-[3-(dimethylamino)propyl]-3-(6,8-dimethylimidazo[1,2-a]pyrazin-2-yl)-2H-chromen-2-one] | 194 to 196 °C | ***** (fold increase >1.65) | < 0.1 µM | < 300 nM |
| CC1(C)CN(c2ccc3cc(-c4cn5ccc(C(F)(F)F)cc5n4)c(=O)oc3c2)CCN1 [Compound 269, 7-(3,3-dimethylpiperazin-1-yl)-3-[7-(trifluoromethyl)imidazo[1,2-a]pyridin-2-yl]-2H-chromen-2-one] | 221 to 227 °C | * (maximum fold increase of ≤1.2) | 1 to 3 µM | – |
| Cc1cn2cc(-c3cc4ccc(N5CCC(NC(C)CO)CC5)cc4oc3=O)nc2c(C)n1 (centres unmarked) [Compound 925, 3-(6,8-dimethylimidazo[1,2-a]pyrazin-2-yl)-7-{4-[(1-hydroxypropan-2-yl)amino]piperidin-1-yl}-2H-chromen-2-one] | 185 to 189 °C | *** (fold increase between >1.35 and ≤1.5) | < 0.1 µM | 1000 to 3000 nM |
| Cc1cn2cc(-c3cc4ccc(N[C@@H]5CCN(CCO)C5)cc4oc3=O)nc2c(C)n1 [Compound 732, 3-(6,8-dimethylimidazo[1,2-a]pyrazin-2-yl)-7-{[(3R)-1-(2-hydroxyethyl)pyrrolidin-3-yl]amino}-2H-chromen-2-one] | 211 to 219 °C | *** (fold increase between >1.35 and ≤1.5) | < 0.1 µM | < 300 nM |
| Cc1cn2cc(-c3cc4ccc(CCCN(C)C)cc4oc3=O)cc(F)c2n1 [Compound 909, 7-[3-(dimethylamino)propyl]-3-(8-fluoro-2-methylimidazo[1,2-a]pyridin-6-yl)-2H-chromen-2-one] | 185 to 188 °C | ***** (fold increase >1.65) | < 0.1 µM | < 300 nM |
| Cc1cn2cc(-c3cc4ccc(N5CC(N(C)C)C5)cc4oc3=O)nc2c(C)n1 [Cpd 943, 7-[3-(dimethylamino)azetidin-1-yl]-3-(6,8-dimethylimidazo[1,2-a]pyrazin-2-yl)-2H-chromen-2-one] | 246 to 250 °C | **** (fold increase between >1.5 and ≤1.65) | < 0.1 µM | < 300 nM |
| Cc1cn2cc(-c3cc4ccc(N5C[C@@H](C)N[C@@H](C)C5)cc4oc3=O)cc2cn1 [Compound 584, 7-[(3R,5S)-3,5-dimethylpiperazin-1-yl]-3-(3-methylpyrrolo[1,2-a]pyrazin-7-yl)-2H-chromen-2-one] | 172 to 174 °C | ***** (fold increase >1.65) | < 0.1 µM | < 300 nM |
| Cc1cn2cc(-c3cc4ccc(CCCNCc5ccsc5)cc4oc3=O)nc2c(C)n1 [Compound 934, 3-(6,8-dimethylimidazo[1,2-a]pyrazin-2-yl)-7-{3-[(thiophen-3-ylmethyl)amino]propyl}-2H-chromen-2-one] | 149 to 152 °C | ** (fold increase between >1.2 and ≤1.35) | < 0.1 µM | – |
